Experimental findings from paper PMC5218480 (PLoS ONE, 2017) are described below.

Molecules are shown by their SMILES.

The assay relates to MV-4-11 cells. Kind of assay: Gene expression microarray analysis (Affymetrix PrimeView) and GSEA. The class given is cell-based, human. On the set-up: RFU PODN (11730768_x_at) / Fold change /veh PODN (11730768_x_at) / RFU LINC00158 (11744669_a_at) / Fold change /veh LINC00158 (11744669_a_at) / RFU DUSP10 (11751237_a_at) / Fold change /veh DUSP10 (11751237_a_at) / RFU ID3 (11757404_x_at) / Fold change /veh ID3 (11757404_x_at) / RFU PLEKHG5 (11737974_s_at) / Fold change /veh PLEKHG5 (11737974_s_at) / RFU LRRC4B (11730491_at) / Fold change /veh LRRC4B (11730491_at) / RFU GIMAP4 (11747438_a_at) / Fold change /veh GIMAP4 (11747438_a_at) / RFU KRT8 (11758183_x_at) / Fold change /veh KRT8 (11758183_x_at) / RFU CNN1 (11734310_a_at) / Fold change /veh CNN1 (11734310_a_at) / RFU VPS37D (11726825_at) / Fold change /veh VPS37D (11726825_at) / RFU C10orf10 (11716522_x_at) / Fold change /veh C10orf10 (11716522_x_at) / RFU KIR2DL2 /// KIR2DL4 /// KIR2DL5A /// KIR2DL5B /// KIR2DS1 /// KIR2DS2 /// KIR2DS3 /// KIR2DS4 /// KIR3DL3 /// KIR3DL3 /// KIR3DS1 (11738374_at) / Fold change /veh KIR2DL2 /// KIR2DL4 /// KIR2DL5A /// KIR2DL5B /// KIR2DS1 /// KIR2DS2 /// KIR2DS3 /// KIR2DS4 /// KIR3DL3 /// KIR3DL3 /// KIR3DS1 (11738374_at) / RFU C1QL1 (11718748_at) / Fold change /veh C1QL1 (11718748_at) / RFU TMPRSS4 (11747572_a_at) / Fold change /veh TMPRSS4 (11747572_a_at) / RFU HAMP (11756126_x_at) / Fold change /veh HAMP (11756126_x_at) / RFU RNFT2 (11725882_a_at) / Fold change /veh RNFT2 (11725882_a_at) / RFU NR4A2 (11747474_a_at) / Fold change /veh NR4A2 (11747474_a_at) / RFU ABCC12 (11746883_a_at) / Fold change /veh ABCC12 (11746883_a_at) / RFU TMEM136 (11760407_x_at) / Fold change /veh TMEM136 (11760407_x_at) / RFU CLDN22 /// WWC2 (11732394_at) / Fold change /veh CLDN22 /// WWC2 (11732394_at) / RFU HLA-DPB1 (11760878_x_at) / Fold change /veh HLA-DPB1 (11760878_x_at) / RFU SPINT1 (11716480_a_at) / Fold change /veh SPINT1 (11716480_a_at) / RFU GAP43 (11754022_s_at) / Fold change /veh GAP43 (11754022_s_at) / RFU A4GNT (11735810_at) / Fold change /veh A4GNT (11735810_at) / RFU PRB3 (11715151_x_at) / Fold change /veh PRB3 (11715151_x_at) / RFU TUBB4B (11761932_at) / Fold change /veh TUBB4B (11761932_at) / RFU CAPN14 (11732068_a_at) / Fold change /veh CAPN14 (11732068_a_at) / RFU TMCC2 (11721928_a_at) / Fold change /veh TMCC2 (11721928_a_at) / RFU IRGQ (11745062_a_at) / Fold change /veh IRGQ (11745062_a_at) / RFU FAM174B (11720279_a_at) / Fold change /veh FAM174B (11720279_a_at) / RFU TMPRSS4 (11748680_a_at) / Fold change /veh TMPRSS4 (11748680_a_at) / RFU FAM212B (11763350_a_at) / Fold change /veh FAM212B (11763350_a_at) / RFU PLEKHG5 (11743358_a_at) / Fold change /veh PLEKHG5 (11743358_a_at) / RFU ZSCAN30 (11745921_a_at) / Fold change /veh ZSCAN30 (11745921_a_at) / RFU CMKLR1 (11741424_a_at) / Fold change /veh CMKLR1 (11741424_a_at) / RFU LOC101060620 /// MAPK8IP1 (11723275_at) / Fold change /veh LOC101060620 /// MAPK8IP1 (11723275_at) / RFU SPTSSB (11747773_x_at) / Fold change /veh SPTSSB (11747773_x_at) / RFU PRSS12 (11739890_at) / Fold change /veh PRSS12 (11739890_at) / RFU BIN1 (11741810_x_at) / Fold change /veh BIN1 (11741810_x_at) / RFU WNT11 (11732464_a_at) / Fold change /veh WNT11 (11732464_a_at) / RFU C10orf10 (11716521_a_at) / Fold change /veh C10orf10 (11716521_a_at) / RFU C5orf56 (11738089_at) / Fold change /veh C5orf56 (11738089_at) / RFU CYB561 (11721691_x_at) / Fold change /veh CYB561 (11721691_x_at) / RFU ANKRD19P (11752326_a_at) / Fold change /veh ANKRD19P (11752326_a_at) / RFU OR2T12 /// OR2T33 /// OR2T8 (11738714_s_at) / Fold change /veh OR2T12 /// OR2T33 /// OR2T8 (11738714_s_at) / RFU VCAN (11748164_a_at) / Fold change /veh VCAN (11748164_a_at) / RFU JSRP1 (11732532_at) / Fold change /veh JSRP1 (11732532_at) / RFU KRTAP10-11 (11738290_x_at) / Fold change /veh KRTAP10-11 (11738290_x_at) / RFU MYO3A (11730013_a_at) / Fold change /veh MYO3A (11730013_a_at) / RFU EBF3 (11725865_a_at) / Fold change /veh EBF3 (11725865_a_at) / RFU CAMK2N1 (11719241_x_at) / Fold change /veh CAMK2N1 (11719241_x_at) / RFU C5orf56 (11738088_a_at) / Fold change /veh C5orf56 (11738088_a_at) / RFU OLFML3 (11715873_a_at) / Fold change /veh OLFML3 (11715873_a_at) / RFU LOC100653217 /// NTM (11731650_a_at) / Fold change /veh LOC100653217 /// NTM (11731650_a_at) / RFU MAPK11 (11762145_a_at) / Fold change /veh MAPK11 (11762145_a_at) / RFU FIZ1 (11724087_x_at) / Fold change /veh FIZ1 (11724087_x_at) / RFU OASL (11726364_x_at) / Fold change /veh OASL (11726364_x_at) / RFU SOX15 (11748057_x_at) / Fold change /veh SOX15 (11748057_x_at) / RFU CD79A (11719716_a_at) / Fold change /veh CD79A (11719716_a_at) / RFU HIST1H1D (11736915_at) / Fold change /veh HIST1H1D (11736915_at) / RFU CASKIN2 (11723855_a_at) / Fold change /veh CASKIN2 (11723855_a_at) / RFU LOC730098 (11760151_x_at) / Fold change /veh LOC730098 (11760151_x_at) / RFU OR4N2 (11742367_at) / Fold change /veh OR4N2 (11742367_at) / RFU PRRT2 (11749266_a_at) / Fold change /veh PRRT2 (11749266_a_at) / RFU SNX32 (11753110_a_at) / Fold change /veh SNX32 (11753110_a_at) / RFU CDHR5 (11726645_a_at) / Fold change /veh CDHR5 (11726645_a_at) / RFU RCAN1 (11760418_a_at) / Fold change /veh RCAN1 (11760418_a_at) / RFU FAM167A (11723789_a_at) / Fold change /veh FAM167A (11723789_a_at) / RFU FAM26E (11764081_at) / Fold change /veh FAM26E (11764081_at) / RFU ISYNA1 (11749810_s_at) / Fold change /veh ISYNA1 (11749810_s_at) / RFU ACY1 (11761880_at) / Fold change /veh ACY1 (11761880_at) / RFU 11764098_at / Fold change /veh 11764098_at / RFU SAMD14 (11745864_x_at) / Fold change /veh SAMD14 (11745864_x_at) / RFU NPB (11741838_a_at) / Fold change /veh NPB (11741838_a_at) / RFU TMPRSS6 (11731388_a_at) / Fold change /veh TMPRSS6 (11731388_a_at) / RFU KRTAP10-2 (11738614_at) / Fold change /veh KRTAP10-2 (11738614_at) / RFU ARHGAP8 /// PRR5-ARHGAP8 (11727945_x_at) / Fold change /veh ARHGAP8 /// PRR5-ARHGAP8 (11727945_x_at) / RFU KRTAP5-7 /// NADSYN1 (11734609_at) / Fold change /veh KRTAP5-7 /// NADSYN1 (11734609_at) / RFU RASL12 (11751679_a_at) / Fold change /veh RASL12 (11751679_a_at) / RFU CDKN2B (11736163_a_at) / Fold change /veh CDKN2B (11736163_a_at) / RFU PRF1 (11729649_at) / Fold change /veh PRF1 (11729649_at) / RFU, ZNF638 /// ZNF638-IT1 / Fold change vs veh, ZNF638 /// ZNF638-IT1 / RFU, PANK3 / Fold change vs veh, PANK3 / RFU, SH3YL1 / Fold change vs veh, SH3YL1 / RFU, ZEB2 / Fold change vs veh, ZEB2 / RFU, NRIP1 / Fold change vs veh, NRIP1 / RFU, PTTG1IP / Fold change vs veh, PTTG1IP / RFU, CAPN2 / Fold change vs veh, CAPN2 / RFU, MED14 / Fold change vs veh, MED14 / RFU, SNORA58 / Fold change vs veh, SNORA58 / RFU, C1orf63 / Fold change vs veh, C1orf63 / RFU, LRRFIP1 / Fold change vs veh, LRRFIP1 / RFU, NDUFAF7 / Fold change vs veh, NDUFAF7 / RFU, SLC12A2 / Fold change vs veh, SLC12A2 / RFU, IBTK / Fold change vs veh, IBTK / RFU, ESF1 / Fold change vs veh, ESF1 / Fold change vs veh, TMEM50B / RFU, TAOK1 / Fold change vs veh, TAOK1 / RFU, ACBD3 / Fold change vs veh, ACBD3 / RFU, TMA16 / Fold change vs veh, TMA16 / RFU, RWDD3 / Fold change vs veh, RWDD3 / RFU, BCAT1 / Fold change vs veh, BCAT1 / RFU, EDEM3 / Fold change vs veh, EDEM3 / RFU, TMEM33 / Fold change vs veh, TMEM33 / RFU, WDR75 / Fold change vs veh, WDR75 / RFU, AHCTF1 / Fold change vs veh, AHCTF1 / RFU, TFRC / Fold change vs veh, TFRC / RFU, ZDHHC17 / Fold change vs veh, ZDHHC17 / RFU, NOM1 / Fold change vs veh, NOM1 / RFU, ARL8B / Fold change vs veh, ARL8B / RFU, ZBTB11 / Fold change vs veh, ZBTB11 / RFU, TAMM41 / Fold change vs veh, TAMM41 / RFU, KIAA1704 /// LOC100996395 / Fold change vs veh, KIAA1704 /// LOC100996395 / RFU, ING1 / Fold change vs veh, ING1 / RFU, TRMT61B / Fold change vs veh, TRMT61B / RFU, FUBP3 / Fold change vs veh, FUBP3 / RFU, TP53 / Fold change vs veh, TP53 / RFU, TNKS2 / Fold change vs veh, TNKS2 / RFU, ZFP14 / Fold change vs veh, ZFP14 / RFU, ACTR2 / Fold change vs veh, ACTR2 / RFU, PPP3R1 / Fold change vs veh, PPP3R1 / RFU, PIK3R1 / Fold change vs veh, PIK3R1 / RFU, HNRNPA1 / Fold change vs veh, HNRNPA1 / RFU, RNF170 / Fold change vs veh, RNF170 / RFU, ZNF28 / Fold change vs veh, ZNF28 / RFU, RNGTT / Fold change vs veh, RNGTT / RFU, OGT / Fold change vs veh, OGT / RFU, BRD1 / Fold change vs veh, BRD1 / RFU, MARS / Fold change vs veh, MARS / RFU, ZNF655 / Fold change vs veh, ZNF655 / RFU, FAHD1 / Fold change vs veh, FAHD1 / RFU, BDP1 / Fold change vs veh, BDP1 / RFU, LRRCC1 / Fold change vs veh, LRRCC1 / RFU, ARID1A / Fold change vs veh, ARID1A / RFU, ZNF146 / Fold change vs veh, ZNF146 / RFU, ZNF330 / Fold change vs veh, ZNF330 / RFU, GPN3 / Fold change vs veh, GPN3 / RFU, C9orf123 / Fold change vs veh, C9orf123 / RFU, N4BP2L2 / Fold change vs veh, N4BP2L2 / RFU, ARFIP1 / Fold change vs veh, ARFIP1 / RFU, FAM179B / Fold change vs veh, FAM179B / RFU, BCL10 / Fold change vs veh, BCL10 / RFU, UHRF1BP1L / Fold change vs veh, UHRF1BP1L / RFU, BET1 / Fold change vs veh, BET1 / RFU, CNOT2 / Fold change vs veh, CNOT2 / RFU, ZNF268 / Fold change vs veh, ZNF268 / Fold change vs veh, ZNF507 / RFU, DGCR2 / Fold change vs veh, DGCR2 / RFU, WDSUB1 / Fold change vs veh, WDSUB1 / Fold change vs veh, HSP90B1 /// MIR3652 / RFU, ADSS / Fold change vs veh, ADSS / RFU, GK / Fold change vs veh, GK / RFU, ZNF148 / Fold change vs veh, ZNF148 / RFU, TAF9 / Fold change vs veh, TAF9 / RFU, SLC1A5 / Fold change vs veh, SLC1A5 / RFU, SLMO2 / Fold change vs veh, SLMO2 / RFU, ABCC4 / Fold change vs veh, ABCC4 / RFU, LOC101060439 /// RAP1B / Fold change vs veh, LOC101060439 /// RAP1B / RFU, RFX7 / Fold change vs veh, RFX7 / RFU, GTPBP10 / Fold change vs veh, GTPBP10 / RFU, CNEP1R1 / Fold change vs veh, CNEP1R1 / RFU, BIVM-ERCC5 /// ERCC5 / Fold change vs veh, BIVM-ERCC5 /// ERCC5 / RFU, ILF3 / Fold change vs veh, ILF3 / RFU 11762660_at / Fold change /veh 11762660_at / RFU VCAN (11757783_s_at) / Fold change /veh VCAN (11757783_s_at) / RFU DDX43 (11728927_at) / Fold change /veh DDX43 (11728927_at) / RFU KRT8 (11758188_x_at) / Fold change /veh KRT8 (11758188_x_at) / RFU NKD1 (11759106_at) / Fold change /veh NKD1 (11759106_at) / RFU SRD5A1 (11742802_a_at) / Fold change /veh SRD5A1 (11742802_a_at) / RFU TPSAB1 /// TPSB2 (11721975_s_at) / Fold change /veh TPSAB1 /// TPSB2 (11721975_s_at) / RFU GSTM3 (11746129_a_at) / Fold change /veh GSTM3 (11746129_a_at) / RFU IL23R (11737362_x_at) / Fold change /veh IL23R (11737362_x_at) / RFU TMEM51 (11727254_a_at) / Fold change /veh TMEM51 (11727254_a_at) / RFU PIWIL2 (11732686_x_at) / Fold change /veh PIWIL2 (11732686_x_at) / RFU ORM1 (11744905_x_at) / Fold change /veh ORM1 (11744905_x_at) / RFU CCDC152 (11743942_at) / Fold change /veh CCDC152 (11743942_at) / RFU ECM1 (11717891_a_at) / Fold change /veh ECM1 (11717891_a_at) / RFU IL23R (11748794_a_at) / Fold change /veh IL23R (11748794_a_at) / RFU TNFAIP8L3 (11732012_x_at) / Fold change /veh TNFAIP8L3 (11732012_x_at) / RFU MBOAT4 (11741988_at) / Fold change /veh MBOAT4 (11741988_at) / RFU 11764193_at / Fold change /veh 11764193_at / RFU TMEM53 (11763286_at) / Fold change /veh TMEM53 (11763286_at) / RFU MAGEB2 (11727129_at) / Fold change /veh MAGEB2 (11727129_at) / RFU TMEM200A (11744735_a_at) / Fold change /veh TMEM200A (11744735_a_at) / RFU CCDC152 (11751479_a_at) / Fold change /veh CCDC152 (11751479_a_at) / RFU FAM211A (11726209_a_at) / Fold change /veh FAM211A (11726209_a_at) / RFU RGS16 (11746705_a_at) / Fold change /veh RGS16 (11746705_a_at) / RFU VCAN (11755009_s_at) / Fold change /veh VCAN (11755009_s_at) / RFU RHOB (11743442_s_at) / Fold change /veh RHOB (11743442_s_at) / RFU RGS16 (11720943_a_at) / Fold change /veh RGS16 (11720943_a_at) / RFU RGS16 (11720944_at) / Fold change /veh RGS16 (11720944_at) / RFU, VPS4B / Fold change vs veh, VPS4B / RFU, CREB1 / Fold change vs veh, CREB1 / RFU, DNAJC13 / Fold change vs veh, DNAJC13 / RFU, GNAQ / Fold change vs veh, GNAQ / RFU, CDK5R1 / Fold change vs veh, CDK5R1 / RFU, ZRANB3 / Fold change vs veh, ZRANB3 / RFU, CUL4A / Fold change vs veh, CUL4A / RFU, CCNY / Fold change vs veh, CCNY / RFU, UFL1 / Fold change vs veh, UFL1 / RFU, COG3 / Fold change vs veh, COG3 / RFU, DIAPH2 / Fold change vs veh, DIAPH2 / RFU, SKA2 / Fold change vs veh, SKA2 / RFU, AFF3 / Fold change vs veh, AFF3 / RFU, LMF1 / Fold change vs veh, LMF1 / RFU, IPO11 / Fold change vs veh, IPO11 / RFU, DFFB / Fold change vs veh, DFFB / RFU, FOXP1 / Fold change vs veh, FOXP1 / RFU, CARD8 / Fold change vs veh, CARD8 / RFU, STRN3 / Fold change vs veh, STRN3 / RFU, ADK / Fold change vs veh, ADK / RFU, RASSF2 / Fold change vs veh, RASSF2 / RFU, WIPF1 / Fold change vs veh, WIPF1 / RFU, LARP1B / Fold change vs veh, LARP1B / RFU, RASA1 / Fold change vs veh, RASA1 / RFU, RB1 / Fold change vs veh, RB1 / RFU, PPFIA1 / Fold change vs veh, PPFIA1 / RFU, MAT2A / Fold change vs veh, MAT2A / RFU, CCT5 / Fold change vs veh, CCT5 / RFU, WDR92 / Fold change vs veh, WDR92 / RFU, CUX1 / Fold change vs veh, CUX1 / RFU, TTC7A / Fold change vs veh, TTC7A / RFU, TMEM135 / Fold change vs veh, TMEM135 / RFU, DEPTOR / Fold change vs veh, DEPTOR / RFU, CPM / Fold change vs veh, CPM / RFU, DNAJB6 / Fold change vs veh, DNAJB6 / RFU, CACNA2D3 / Fold change vs veh, CACNA2D3 / RFU, DTX4 / Fold change vs veh, DTX4 / RFU, TFCP2 / Fold change vs veh, TFCP2 / RFU, GMCL1 /// GMCL1P1 / Fold change vs veh, GMCL1 /// GMCL1P1 / RFU, AEBP2 / Fold change vs veh, AEBP2 / RFU, SNHG1 /// SNORD22 /// SNORD25 /// SNORD26 /// SNORD27 /// SNORD28 /// SNORD29 /// SNORD31 / Fold change vs veh, SNHG1 /// SNORD22 /// SNORD25 /// SNORD26 /// SNORD27 /// SNORD28 /// SNORD29 /// SNORD31 / Fold change (Aza/veh), C12orf56 (ProbeSet 11735607_a_at) / Fold change (ACY-1035/veh), C12orf56 (ProbeSet 11735607_a_at) / Fold change (Aza/veh), FGFR1OP (ProbeSet 11751329_s_at) / Fold change (ACY-1035/veh), FGFR1OP (ProbeSet 11751329_s_at) / Fold change (Aza/veh), VPS36 (ProbeSet 11739960_a_at) / Fold change (ACY-1035/veh), VPS36 (ProbeSet 11739960_a_at) / RFU SYPL1 (11715823_x_at) / Fold change /veh SYPL1 (11715823_x_at) / RFU IGFBP7 (11715501_s_at) / Fold change /veh IGFBP7 (11715501_s_at) / RFU REEP3 (11722064_at) / Fold change /veh REEP3 (11722064_at) / RFU IGLL1 (11728026_x_at) / Fold change /veh IGLL1 (11728026_x_at): dose or concentration left out as unconfirmed. To be noted: MV-4-11 cells, 48 hours.

Take `Nc1ccc(-c2cccs2)cc1NC(=O)c1ccc2c(c1)cc(C1CC1)n2CCN1CCOCC1` [ACY-1035]: the “RFU TMCC2 (11721928_a_at)” value is listed as 13.59 RFU.
